# Like-named read-outs stand apart in the source and are kept apart here.
# Molecular target: T1, PLK1 (Homo sapiens, UniProt P53350)
# T1 construct: endogenous in cells; host or cells: HeLa
# Assay: PLK1 protein degradation in HeLa cells, Western blotting (PLK1/GAPDH ratio)
# Assay type: cell-based
# Conditions: 6 hours compound incubation; for DC50: measured only if the grade of Dmax is A or B; for Dmax: thymidine block and release, 10 points three-fold from 3 μM, PLK1 to GAPDH ratio
# Source text: The HeLa cell line was purchased from Korea Cell Line Bank (KCLB), Seoul, Korea. The passage in cell culture was maintained at P115 to P125.
# For cell culture, DMEM (Gibco, Cat. No. 1195-65; Lot. No. 2085318), FBS (Gibco, Cat. No. 16000-044; Lot. No. 2097593), Penicillin/Streptomycin (PS) (Gibco, Cat. No. 15140-122; Lot. No. 2058855), 100 mm^2 cell culture dish (SPL, Cat. No. 20100), 150 mm^2 cell culture dish (SPL, Cat. No. 20150), 12-well culture plate (SPL, Cat. No. 30012), PBS pH 7.4 (Gibco, Cat. No. 10010-023; Lot. No. 2085080), TrypLE™ Express (Gibco, Cat. No. 12605-010; Lot No. 2070638), Counting Chamber (Hematocytometer) (Hirschmann, Cat. No. 8100204), and 0.4% Trypan Blue Solution (DYNEBIO, Cat. No. CBT3710; Lot. No. 20190723) were used.
# 2×10^5 cells were seeded for each well of a 12-well plate (SPL), and the cells were cultured in the culture medium in a total volume of 2 ml.
# The compounds of Examples were completely dissolved in DMSO and used in the experiment, and thymidine was completely dissolved in DW and used in the experiment. For thymidine block, the products were treated with 2 mM of thymidine (Sigma-Aldrich Cat. No. T9250-5G) and then incubated for 24 hours.
# For release and chemical treatment, the medium was suctioned and washed 3 times with 1×PBS. Complete media was added, followed by incubation for 4 hours in a CO2 incubator. Each compound was diluted three folds from the highest concentration of 3 μM to the lowest concentration in 10 points and then incubated for 6 hours again.
# For SDS-PAGE and Western blotting, 1×RIPA lysis buffer (Rockland, Cat. No. MB-030-0050; Lot no. 39751), 100× Protease Inhibitor Cocktail (Quartett, Cat. No. PPI1015; Lot no. PCO50038424), Pierce™ BCA protein assay kit (ThermoScientific, Cat. No. 23225; Lot no. UC276876), albumin standard (ThermoScientific, Cat. No. 23209; Lot no. UB269561), 4-15% Mini-PROTEAN TGX stain-free gel (Bio-rad, Cat. No. 4568085; Lot no. L007041B), 10× Tris/Glycine/SDS buffer (Bio-rad, Cat. No. 1610732; Lot no. 10000044375B); 10×TBS (Bio-rad, Cat. No. 1706435; Lot no. 1000045140B), 10% Tween 20 (Cat. No. 1610781; Lot no. L004152B), Color protein standard broad range (NEB, Cat. No. P7719S; Lot no. 10040349), 4× Laemmli sample buffer (Bio-rad, Cat. No. 1610747; Lot no. L004133B), β-mercaptoethanol (Sigma-Aldrich, Cat. No. M3148; Lot no. 60-24-2), SuperBlock™ T20 (TBS) blocking buffer (ThermoScientific, Cat. No. 37536; Lot no. UC282578), 1M sodium azide solution (Sigma-Aldrich, Cat. No. 08591-1 mL-F; Lot no. BCBV4989), α-Rabbit pAb to Ms IgG (abcam, Cat. No. ab97046; Lot no. GR3252115-1), α-Goat pAb to Rb IgG (CST, Cat. No. 7074S; Lot no. 28), α-GAPDH (abcam, Cat. No. ab8245; Lot no. GR3275542-2), α-Plk1 (CST, Cat. No. 208G4), α-BRD4 (CST, Cat. No. 13440S), ECL™ Prime western blotting reagents (GE Healthcare, Cat. No. RPN2232; Lot no. 17001655), Ponceau S solution (Sigma-Aldrich, Cat. No. P7170; Lot no. SLBV4112), Difco™ Skim milk (BD, Cat. No. 232100; Lot no. 8346795), and iBlot® 2 NC Regular stacks (Invitrogen, Cat. No. IB323001; Lot no. 2NR110619-02) were used.
# For cell harvesting, the cells were first separated from the plate using trypsin and then washed with the medium and PBS. Specifically, the medium was suctioned off and washed with 1 mL of PBS, and PBS was suctioned off. The cells were treated with 0.5 mL TrypLE™ Express at 37° C. for 7 minutes to separate the cells, and then 0.5 mL of complete medium was added to collect 1 mL of cell culture solution. Then, 1 mL of the cell collection solution was centrifuged at 8,000 rpm for 120 seconds, and the supernatant was removed. After washing with 0.2 mL of PBS, the PBS was removed.
# For cell lysis, a lysis buffer was added and cell debris was removed to obtain a cell lysate. Specifically, the cells were treated with 70 μL of 1×RIPA buffer containing a protease inhibitor and incubated for 30 minutes on ice. Then, the cells were centrifuged at 4° C. and 15,000 rpm for 10 minutes to obtain a cell lysate. […]
# T1 sequence (P53350 whole entry): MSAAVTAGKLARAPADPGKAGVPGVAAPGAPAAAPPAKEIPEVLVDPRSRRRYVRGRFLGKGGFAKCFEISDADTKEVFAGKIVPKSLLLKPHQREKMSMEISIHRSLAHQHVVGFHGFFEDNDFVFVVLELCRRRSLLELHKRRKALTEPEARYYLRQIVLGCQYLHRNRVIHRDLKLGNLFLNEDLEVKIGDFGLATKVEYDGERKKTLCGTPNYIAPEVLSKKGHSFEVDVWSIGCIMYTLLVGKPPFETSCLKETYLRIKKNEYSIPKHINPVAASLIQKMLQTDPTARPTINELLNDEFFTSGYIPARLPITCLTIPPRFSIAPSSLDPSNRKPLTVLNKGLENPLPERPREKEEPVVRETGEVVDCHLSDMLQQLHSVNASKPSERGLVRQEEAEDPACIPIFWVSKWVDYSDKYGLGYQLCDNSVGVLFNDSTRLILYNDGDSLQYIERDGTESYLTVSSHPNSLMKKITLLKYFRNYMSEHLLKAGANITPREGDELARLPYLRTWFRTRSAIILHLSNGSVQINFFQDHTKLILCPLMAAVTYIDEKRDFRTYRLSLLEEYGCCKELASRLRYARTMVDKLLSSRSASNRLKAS
SMILES,DC50,Dmax (read-out: Dmax),Dmax
"COc1cc(C(=O)NC2CCN(CCCCCCCNc3cccc4c3C(=O)N(C3CCC(=O)NC3=O)C4=O)CC2)c(F)cc1Nc1ncc2c(n1)N(C1CCCC1)CC(F)(F)C(=O)N2C (centres unmarked) [Compound 11, 4-((9-cyclopentyl-7,7-difluoro-5-methyl-6-oxo-6,7,8,9-tetrahydro-5H-pyrimido[4,5-b][1,4]diazepin-2-yl)amino)-N-(1-(7-((2-(2,6-dioxopiperidin-3-yl)-1,3-dioxoisoindolin-4-yl)amino)heptyl)piperidin-4-yl)-2-fluoro-5-methoxybenzamide]",≤ 500 nM,60 to 80%,
"COc1cc(C(=O)NC2CCN(CCCCCCCCNc3cccc4c3C(=O)N(C3CCC(=O)NC3=O)C4=O)CC2)c(F)cc1Nc1ncc2c(n1)N(C1CCCC1)CC(F)(F)C(=O)N2C (centres unmarked) [Compound 12, 4-((9-cyclopentyl-7,7-difluoro-5-methyl-6-oxo-6,7,8,9-tetrahydro-5H-pyrimido[4,5-b][1,4]diazepin-2-yl)amino)-N-(1-(8-((2-(2,6-dioxopiperidin-3-yl)-1,3-dioxoisoindolin-4-yl)amino)octyl)piperidin-4-yl)-2-fluoro-5-methoxybenzamide]",> 500 nM,60 to 80%,
COc1cc(C(=O)NC2CCN(CCCCCCCCCNc3cccc4c3C(=O)N(C3CCC(=O)NC3=O)C4=O)CC2)c(F)cc1Nc1ncc2c(n1)N(C1CCCC1)CC(F)(F)C(=O)N2C (centres unmarked) [Compound 13],≤ 500 nM,,B (B: Dmax is 80% or less and 60% or more)
"COc1cc(C(=O)NC2CCN(CCCCCCCCCCNc3cccc4c3C(=O)N(C3CCC(=O)NC3=O)C4=O)CC2)c(F)cc1Nc1ncc2c(n1)N(C1CCCC1)CC(F)(F)C(=O)N2C (centres unmarked) [Compound 14, 4-((9-cyclopentyl-7,7-difluoro-5-methyl-6-oxo-6,7,8,9-tetrahydro-5H-pyrimido[4,5-b][1,4]diazepin-2-yl)amino)-N-(1-(10-((2-(2,6-dioxopiperidin-3-yl)-1,3-dioxoisoindolin-4-yl)amino)decyl)piperidin-4-yl)-2-fluoro-5-methoxybenzamide]",,< 60%,
"COc1cc(C(=O)NC2CCN(CCCCCCCCCCCNc3cccc4c3C(=O)N(C3CCC(=O)NC3=O)C4=O)CC2)c(F)cc1Nc1ncc2c(n1)N(C1CCCC1)CC(F)(F)C(=O)N2C (centres unmarked) [Compound 15, 4-((9-cyclopentyl-7,7-difluoro-5-methyl-6-oxo-5H,6H,7H,8H,9H-pyrimido[4,5-b][1,4]diazepin-2-yl)amino)-N-(1-(11-((2-(2,6-dioxopiperidin-3-yl)-1,3-dioxo-2,3-dihydro-1H-isoindol-4-yl)amino)undecyl)piperidin-4-yl)-2-fluoro-5-methoxybenzamide]",> 500 nM,60 to 80%,
"COc1cc(C(=O)NC2CCN(CCCCCCCCCCCCCNc3cccc4c3C(=O)N(C3CCC(=O)NC3=O)C4=O)CC2)c(F)cc1Nc1ncc2c(n1)N(C1CCCC1)CC(F)(F)C(=O)N2C (centres unmarked) [Compound 16, 4-((9-cyclopentyl-7,7-difluoro-5-methyl-6-oxo-6,7,8,9-tetrahydro-5H-pyrimido[4,5-b][1,4]diazepin-2-yl)amino)-N-(1-(13-((2-(2,6-dioxopiperidin-3-yl)-1,3-dioxoisoindolin-4-yl)amino)tridecyl)piperidin-4-yl)-2-fluoro-5-methoxybenzamide]",,< 60%,
"COc1cc(C(=O)NC2CCN(CCCCCCCCCCCCCCNc3cccc4c3C(=O)N(C3CCC(=O)NC3=O)C4=O)CC2)c(F)cc1Nc1ncc2c(n1)N(C1CCCC1)CC(F)(F)C(=O)N2C (centres unmarked) [Compound 17, 4-((9-cyclopentyl-7,7-difluoro-5-methyl-6-oxo-5H,6H,7H,8H,9H-pyrimido[4,5-b][1,4]diazepin-2-yl)amino)-N-(1-(14-((2-(2,6-dioxopiperidin-3-yl)-1,3-dioxo-2,3-dihydro-1H-isoindol-4-yl)amino)tetradecyl)piperidin-4-yl)-2-fluoro-5-methoxybenzamide]",,< 60%,

# Reference: patent US20230372498A1, “PLK1 SELECTIVE DEGRADATION INDUCING COMPOUND” (UPPTHERA, priority 2020, published 2023)
